# Like-named read-outs stand apart in the source and are kept apart here.
# Key:
# HRAS wild-type protein = HRAS wild-type protein (Homo sapiens, UniProt P01112); test: Binding to HRAS by surface plasmon resonance (SPR), KD and KD ratio to KRAS
# Method in brief: (§1)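 Measured at 30°C: SPR with GDP-loaded, E. coli-expressed biotin-Avi RAS captured (~100–300 RU), ascending 75 s compound injections, HBS pH 7.4 with GDP, MgCl2, 4% DMSO. KD from 1:1 fit.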
# [1] = tested on: human lung cancer strain NCI-H441; test: NCI-H441 cell proliferation inhibitory activity (CellTiter-Glo, 4 days); assay type: cell-based; details: read-out: NCl-H441 IC50
# Method in brief: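 Signal came from […] measured per well once the reagent was added. Beforehand, cells were cultured at 37°C and 5% carbon dioxide on a compound series serially diluted in dimethyl sulfoxide.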
# [2] = biological target: GDP-bound KRAS wild-type protein (Homo sapiens, UniProt P01116); test: Binding to KRAS by surface plasmon resonance (SPR), dissociation constant KD
# Method in brief: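 Affinity is measured by surface plasmon resonance at 30°C against captured, GDP-loaded RAS carrying a biotinylated Avi tag. Compounds are titrated by single-cycle kinetics, and KD comes from a 1:1 fit.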
# [3] = biological target: GDP-bound NRAS wild-type protein (Homo sapiens, UniProt P01111); test: Binding to NRAS by surface plasmon resonance (SPR), KD and KD ratio to KRAS
# Method in brief: as §1
# [4] = ratio of KD with respect to HRAS wild-type protein to KD with respect to KRAS
# [5] = 50% proliferation inhibitory concentration, four days
# [6] = Single Cycle Kinetics, 1:1 binding model
# [7] = ratio of KD with respect to GDP-bound NRAS wild-type protein to KD with respect to KRAS
# [8] = ratio of KD for HRAS wild-type protein to KD for KRAS
# [9] = ratio of KD for GDP-bound NRAS wild-type protein to KD for KRAS
# Sequence of HRAS wild-type protein (P01112 whole entry): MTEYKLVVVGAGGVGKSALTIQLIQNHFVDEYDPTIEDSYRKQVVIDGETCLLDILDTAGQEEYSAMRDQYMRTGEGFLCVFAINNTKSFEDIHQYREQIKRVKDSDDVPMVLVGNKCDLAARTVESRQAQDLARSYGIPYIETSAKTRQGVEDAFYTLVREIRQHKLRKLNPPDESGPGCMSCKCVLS
# Sequence of GDP-bound KRAS wild-type protein (P01116 1-188 isoform P01116-2): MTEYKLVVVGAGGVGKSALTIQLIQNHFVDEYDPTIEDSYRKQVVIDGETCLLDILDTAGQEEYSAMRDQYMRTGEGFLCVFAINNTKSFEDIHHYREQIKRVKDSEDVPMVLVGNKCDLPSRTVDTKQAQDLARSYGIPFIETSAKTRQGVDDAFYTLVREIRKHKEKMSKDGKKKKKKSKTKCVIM
# Sequence of GDP-bound NRAS wild-type protein (P01111 whole entry): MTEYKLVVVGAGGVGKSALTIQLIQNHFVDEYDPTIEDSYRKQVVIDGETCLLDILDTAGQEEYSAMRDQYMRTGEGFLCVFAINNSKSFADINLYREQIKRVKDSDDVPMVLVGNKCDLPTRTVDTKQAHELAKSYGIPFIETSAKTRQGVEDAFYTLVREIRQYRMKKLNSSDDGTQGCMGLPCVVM
"IC50 [1, 5]","Kd [2, 6]","IC50 ([1]; NCI-H441 cells, 4 days)",Kd ([2]; 1:1 binding model),Kd ([2]; Single Cycle Kinetics),Structure (SMILES),HRAS /KRAS (HRAS wild-type protein; [4]),"NRAS /KRAS [3, 7]",HRAS /KRAS (HRAS wild-type protein; [8]),"NRAS /KRAS [3, 9]"
62.5 nM,0.42 nM,–,–,–,CCO[C@@H]1C[C@H]2C(=O)NC3(CCC3)C(=O)N(C)[C@@H](C3CCCC3)C(=O)N(C)[C@H](C)CC(=O)N(C)[C@@H](CC3CCCC3)C(=O)N[C@@H]([C@@H](C)CC)C(=O)N(C)CC(=O)N(C)[C@H]3C/C=C\CCN(C3=O)[C@@H](Cc3ccc(C)cc3)C(=O)N(C)CC(=O)N[C@@H](CCc3cc(F)c(C(F)(F)F)c(F)c3)C(=O)N2C1 [PP1413],B (a compound having 3 or more and less than 10 is denoted as B),B (a compound having 3 or more and less than 10 is denoted as B),–,–
–,–,222 nM,7.6 nM,–,CCO[C@@H]1C[C@H]2C(=O)NC3(CC(C)(C)C3)C(=O)N(C)[C@@H](C(CC)CC)C(=O)N(C)[C@H](C(=O)N(C)C)CC(=O)N(C)[C@@H](COC)C(=O)N[C@@H]([C@@H](C)CC)C(=O)N(C3CC3)CC(=O)N(C)[C@H]3C/C=C\CCN(C3=O)[C@@H](CC3CCCCC3)C(=O)N(C)CC(=O)N[C@@H](CCc3cc(F)c(C(F)(F)F)c(F)c3)C(=O)N2C1 [PP2564],–,–,A (a compound having 10 or more and less than 20 is denoted as A),A (a compound having 10 or more and less than 20 is denoted as A)
–,–,53 nM,1.4 nM,–,CCC(CC)[C@H]1C(=O)N(C)[C@H](C(=O)N2CCCCC2)CC(=O)N(C)[C@@H](COC)C(=O)N[C@@H]([C@@H](C)CC)C(=O)N(C)CC(=O)N(C)[C@H]2C/C=C\CCN(C2=O)[C@@H](Cc2ccc(C(F)(F)F)cc2)C(=O)N(C)CC(=O)N[C@@H](CCc2cc(F)c(C(F)(F)F)c(F)c2)C(=O)N2C[C@H](OC(C)C)C[C@H]2C(=O)NC2(CC(C)(C)C2)C(=O)N1C [PP2608],–,–,A (a compound having 10 or more and less than 20 is denoted as A),AA (a compound having 20 or more is denoted as AA)
–,–,7.2 nM,–,0.92 nM,CCC[C@H]1C(=O)N[C@@H](C2CCCC2)C(=O)N(C)CC(=O)N(C)[C@H]2C/C=C\CCN(C2=O)[C@@H](Cc2ccc(C(F)(F)F)cc2)C(=O)N(C)CC(=O)N[C@@H](CCc2ccc(C(F)(F)F)c(OC)c2)C(=O)N2CC3(CC3)C[C@H]2C(=O)N(C)C2(CCC2)C(=O)N(C)[C@@H]([C@@H](C)CC)C(=O)N(C)[C@H](C(=O)N(C)C)CC(=O)N1C [PP3315],–,–,A (a compound having 10 or more and less than 20 is denoted as A),A (a compound having 10 or more and less than 20 is denoted as A)
3.7 nM,0.06 nM,–,–,–,CCO[C@@H]1C[C@H]2C(=O)NC3(CCC3)C(=O)N(C)[C@@H](C3CCCC3)C(=O)N(C)[C@H](C(=O)N(C)C)CC(=O)N(C)[C@@H](CC(C)C)C(=O)N[C@@H]([C@@H](C)CC)C(=O)N(C)CC(=O)N(C)[C@H]3C/C=C\CCN(C3=O)[C@@H](Cc3ccc(C(F)(F)F)cc3)C(=O)N(C)CC(=O)N[C@@H](CCc3ccc(C(F)(F)F)c(OC)c3)C(=O)N2C1 [PP1245],B (a compound having 3 or more and less than 10 is denoted as B),A (a compound having 10 or more and less than 20 is denoted as A),–,–
93.4 nM,0.34 nM,–,–,–,CCO[C@@H]1C[C@H]2C(=O)NC3(CCC3)C(=O)N(C)[C@@H](C(CC)CC)C(=O)N(C)[C@H](C(=O)N(C)C)CC(=O)N(C)[C@@H](C)C(=O)N[C@@H]([C@@H](C)CC)C(=O)N(C)CC(=O)N(C)[C@H]3C/C=C\CCN(C3=O)[C@@H](Cc3ccc(C(F)(F)F)cc3)C(=O)N(C)CC(=O)N[C@@H](CCc3ccc(Cl)c(Cl)c3)C(=O)N2C1 [PP1214],A (a compound having 10 or more and less than 20 is denoted as A),AA (a compound having 20 or more is denoted as AA),–,–
–,–,22.8 nM,–,0.69 nM,C#CC[C@H]1C(=O)N[C@@H]([C@@H](C)CC)C(=O)N(C2CC2)CC(=O)N(C)[C@H]2C/C=C\CCN(C2=O)[C@@H](Cc2ccc(C)cc2)C(=O)N(C)CC(=O)N[C@@H](CCc2ccc(C(F)(F)F)c(OC)c2)C(=O)N2C[C@H](OCC)C[C@H]2C(=O)OC2(CCC2)C(=O)N(C)[C@@H](C2CCCC2)C(=O)N(C)[C@H](C(=O)N(C)C)CC(=O)N1C [PP3390],–,–,B (a compound having 3 or more and less than 10 is denoted as B),A (a compound having 10 or more and less than 20 is denoted as A)
–,–,10.2 nM,–,0.48 nM,CCC[C@H]1C(=O)N[C@@H]([C@@H](C)CC)C(=O)N(C)CC(=O)N(C)[C@H]2C/C=C\CCN(C2=O)[C@@H](Cc2ccc(C(F)(F)F)cc2)C(=O)N(C)CC(=O)N[C@@H](CCc2ccc(C(F)(F)F)c(Cl)c2)C(=O)N2CC3(CC3)C[C@H]2C(=O)N(C)C2(CCC2)C(=O)N(C)[C@@H](C(CC)CC)C(=O)N(C)[C@H](C(=O)N(C)C)CC(=O)N1C [PP3297],–,–,B (a compound having 3 or more and less than 10 is denoted as B),A (a compound having 10 or more and less than 20 is denoted as A)
–,–,19.1 nM,–,0.16 nM,CCC[C@@H]1NC(=O)C[C@@H](C(=O)N(C)C)N(C)C(=O)[C@H](C2CCCC2)N(C)C(=O)C2(CC(C)(C)C2)NC(=O)[C@@H]2C[C@@H](OCC)CN2C(=O)[C@H](CCc2ccc(C(F)(F)F)c(OC)c2)NC(=O)CN(C)C(=O)[C@H](Cc2ccc(C(F)(F)F)cc2)N2CC/C=C\C[C@@H](C2=O)N(C)C(=O)CN(C)C(=O)[C@H]([C@@H](C)CC)NC1=O [PP3447],–,–,A (a compound having 10 or more and less than 20 is denoted as A),A (a compound having 10 or more and less than 20 is denoted as A)
–,–,6.6 nM,0.12 nM,–,CCOC[C@H]1C(=O)N[C@@H]([C@@H](C)CC)C(=O)N(C)CC(=O)N(C)[C@H]2C/C=C\CCN(C2=O)[C@@H](Cc2ccc(C)cc2)C(=O)N(C)CC(=O)N[C@@H](CCc2cc(F)c(C(F)(F)F)c(F)c2)C(=O)N2C[C@@H](C)C[C@H]2C(=O)NC2(CC(C)(C)C2)C(=O)N(C)[C@@H](C2CCCC2)C(=O)N(C)[C@H](C(=O)N(C)C)CC(=O)N1C [PP2439],–,–,A (a compound having 10 or more and less than 20 is denoted as A),A (a compound having 10 or more and less than 20 is denoted as A)
–,–,12.1 nM,–,0.047 nM,CCC[C@H]1C(=O)N[C@@H]([C@@H](C)CC)C(=O)N(C)CC(=O)N(C)[C@H]2C/C=C\CCN(C2=O)[C@@H](Cc2ccc(C(F)(F)F)cc2)C(=O)N(C)CC(=O)N[C@@H](CCc2ccc(C(F)(F)F)c(Cl)c2)C(=O)N2CC3(CC3)C[C@H]2C(=O)NC2(CCC2)C(=O)N(C)[C@@H](C2CCCC2)C(=O)N(C)[C@H](C(=O)N(C)C)CC(=O)N1C [PP3440],–,–,A (a compound having 10 or more and less than 20 is denoted as A),AA (a compound having 20 or more is denoted as AA)
29.3 nM,0.34 nM,–,–,–,CC[C@H](C)[C@@H]1NC(=O)[C@H](CC(C)C)N(C)C(=O)C[C@@H](C(=O)N2CCOCC2)N(C)C(=O)[C@H](C2CCCC2)N(C)C(=O)C2(CCC2)NC(=O)[C@@H]2CCCN2C(=O)[C@H](CCc2cc(F)c(C(F)(F)F)c(F)c2)NC(=O)CN(C)C(=O)[C@H](Cc2ccc(C(F)(F)F)cc2)N2C[C@H](C)[C@H](C)C[C@@H](C2=O)N(C)C(=O)[C@@H]2CCN2C1=O [PP1367],B (a compound having 3 or more and less than 10 is denoted as B),A (a compound having 10 or more and less than 20 is denoted as A),–,–
48.9 nM,0.55 nM,–,–,–,CC[C@H](C)[C@@H]1NC(=O)[C@H](CC)N(C)C(=O)C[C@@H](C(=O)N(C)C)N(C)C(=O)[C@H](C2CCCC2)N(C)C(=O)C2(CCC2)NC(=O)[C@@H]2CCCN2C(=O)[C@H](CCc2cc(F)c(C(F)(F)F)c(F)c2)NC(=O)CN(C)C(=O)[C@H](CC2CCCCC2)N2CC/C=C\C[C@@H](C2=O)N(C)C(=O)CN(C)C1=O [PP1475],A (a compound having 10 or more and less than 20 is denoted as A),A (a compound having 10 or more and less than 20 is denoted as A),–,–
15.4 nM,0.24 nM,–,–,–,CCO[C@@H]1C[C@H]2C(=O)NC3(CCC3)C(=O)N(C)[C@@H](C3CCCC3)C(=O)N(C)[C@H](C(=O)N3CCCCC3)CC(=O)N(C)[C@@H](CC(C)C)C(=O)N[C@@H]([C@@H](C)CC)C(=O)N(C)CC(=O)N(C)[C@H]3C/C=C\CCN(C3=O)[C@@H](Cc3ccc(C(F)(F)F)cc3)C(=O)N(C)CC(=O)N[C@@H](CCc3cc(F)c(C(F)(F)F)c(F)c3)C(=O)N2C1 [PP1290],A (a compound having 10 or more and less than 20 is denoted as A),AA (a compound having 20 or more is denoted as AA),–,–
–,–,144 nM,4.1 nM,–,CCC[C@H]1C(=O)N[C@@H](CC(C)C)C(=O)N(C2CC2)CC(=O)N(C)[C@H]2C/C=C\CCN(C2=O)[C@@H](Cc2ccc(C)cc2)C(=O)N(C)CC(=O)N[C@@H](CCc2cc(F)c(C(F)(F)F)c(F)c2)C(=O)N2C[C@H](OCC)C[C@H]2C(=O)NC2(CCC2)C(=O)N(C)[C@@H](C2CCCC2)C(=O)N(C)[C@H](C(=O)N(C)C)CC(=O)N1C [PP2532],–,–,B (a compound having 3 or more and less than 10 is denoted as B),A (a compound having 10 or more and less than 20 is denoted as A)

# Reference: patent EP4603105A1, “PHARMACEUTICAL COMPOSITION CONTAINING CYCLIC COMPOUND HAVING SELECTIVE KRAS INHIBITORY EFFECT AGAINST HRAS AND NRAS” (CHUGAI SEIYAKU KABUSHIKI KAISHA, priority 2022, dated 2024)
